From patent publication US7618956B2, “Reduction of hair growth” (The Gillette Company, priority 2005, dated 2009)

Key:
hamster hair mass = test: Hamster hair mass assay; assay type: in vivo; settings: vehicle 90% ethanol and 10% propylene glycol
Description: Hamster Hair Mass Assay: Hamster hair mass was determined using a method similar to that described in previous patent (US2004/0198821).

[1] = test system: Human hair follicles in growth phase (anagen); test: Human hair follicle growth assay; assay type: cell-based; settings: for Hair follicle length increase (mm) Treated: day 0 to day 7; for % Reduction of human hair follicle growth / Growth of follicle (mm) Treated: Table III
Description: Human Hair Follicle Growth Assay:
Human hair follicles in growth phase (anagen) were isolated from face-lift tissue (obtained from plastic surgeons) under dissecting scope using a scalpel and watchmakers forceps. The skin was sliced into thin strips exposing 2-3 rows of follicles that could readily be dissected. Follicles were placed into 0.5 ml William's E medium (Life Technologies, Gaithersburg, Md.) supplemented with 2 mM L-glutamine, 10 μg/ml insulin, 10 ng/ml hydrocortisone, 100 units of penicillin, 0.1 mg/ml streptomycin and 0.25 μg/ml amphotericin B. The follicles were incubated in 24-well plates (1 follicle/well) at 37° C. in an atmosphere of 5% CO2 and 95% air. Compounds are dissolved into dimethyl sulfoxide as 100-fold stock solution. The control hair follicles were treated with dimethyl sulfoxide without prostaglandin. The follicles were photographed in the 24-well plates under the dissecting scope at a power of 10×. Typically, image recordings were made on day 0 (day follicles were placed in culture), and again on day 7. The length of hair follicle was assessed using an image analysis software system. The growth of hair fiber was calculated by the subtracting the follicle length on day 0 from that determined on day 7.

[2] = Homo sapiens, Table II, dose 100 μM, vs control

Row | Compound | % Reduction of human hair follicle growth ([1]; dose 10 μM) [%] | Growth of follicle (mm) Treated ([1]; dose 10 μM) [mm] | % Inhibition of hamster hair mass (hamster hair mass; dose 5% (w/v)) [%] | Hair mass (mg) Treated (hamster hair mass; dose 5% (w/v)) [mg] | inhibition at 100 µM [1, 2] [%] | Hair follicle length increase (mm) Treated ([1]; Table II, dose 100 μM) [mm] | % Reduction of human hair follicle growth ([1]; dose 50 μM) [%] | Growth of follicle (mm) Treated ([1]; dose 50 μM) [mm] | % Reduction of human hair follicle growth ([1]; dose 100 μM) [%] | Growth of follicle (mm) Treated ([1]; dose 100 μM) [mm] | other results
1 | C[C@H](CCC(=O)O)[C@H]1CC[C@H]2[C@@H]3CC[C@@H]4C[C@H](O)CC[C@]4(C)[C@H]3CC[C@]12C [Lithocholic acid] | 64.5 ± 12.9 | 0.44 ± 0.16 |  |  |  |  |  |  |  |  | % Inhibition of hamster hair mass (hamster hair mass; dose 4% (w/v)): 46.4 ± 6.0%; Hair mass (mg) Treated (hamster hair mass; dose 4% (w/v)): 1.01 ± 0.12 mg; inhibition at 50 µM ([1]; Homo sapiens, Table II, dose 50 μM, vs control): 98.1 ± 1.9%; Hair follicle length increase (mm) Treated ([1]; Table II, dose 50 μM): 0.02 ± 0.02 mm; % Reduction of human hair follicle growth ([1]; dose 2 μM): 33.9 ± 11.3%; Growth of follicle (mm) Treated ([1]; dose 2 μM): 0.82 ± 0.14 mm; % Reduction of human hair follicle growth ([1]; dose 20 μM): 97.6 ± 4.8%; Growth of follicle (mm) Treated ([1]; dose 20 μM): 0.03 ± 0.06 mm
2 | C[C@H](CCC(=O)O)[C@H]1CC[C@H]2[C@@H]3CC[C@@H]4C[C@H](O)CC[C@]4(C)[C@H]3C[C@H](O)[C@]12C [Deoxycholic acid] | 31.8 ± 18.1 | 1.20 ± 0.49 | 63.6 ± 6.0 | 0.92 ± 0.14 | 94.3 ± 4.7 | 0.06 ± 0.05 | 69.3 ± 13.6 | 0.54 ± 0.34 | 69.3 ± 13.6 | 0.54 ± 0.34 | 
3 | CC(C)=CCCC(C)=CCCC(C)=CCO [Farnesol] |  |  |  |  | 95.4 ± 8 | 0.04 ± 0.07 |  |  |  |  | 
4 | C[C@H](CCC(=O)O)[C@H]1CC[C@H]2[C@@H]3[C@H](O)C[C@@H]4C[C@H](O)CC[C@]4(C)[C@H]3CC[C@]12C [Chenodeoxycholic acid] |  |  | 76.4 ± 2.6 | 0.54 ± 0.08 | 95.3 ± 5.6 | 0.05 ± 0.06 | 91.6 ± 6.5 | 0.13 ± 0.10 |  |  | % Reduction of human hair follicle growth ([1]; dose 5 μM): 1.3 ± 18.7%; Growth of follicle (mm) Treated ([1]; dose 5 μM): 1.53 ± 0.29 mm; % Reduction of human hair follicle growth ([1]; dose 25 μM): 49.0 ± 17.4%; Growth of follicle (mm) Treated ([1]; dose 25 μM): 0.79 ± 0.27 mm
5 | COC(=O)C=C(C)CCC=C(C)CCC1OC1(C)C (centres unmarked) [Juvenile hormone III, 7-Methyl-9-(3,3-dimethyloxivanyl)-3-methyl-2,6-nonadienoic acid methyl ester] |  |  |  |  |  | 0.21 ± 0.15 |  |  |  |  | % Inhibition of human hair follicle growth ([1]; Table II, dose 100 μM, vs control): 75.9 ± 17.2%
6 | C[C@H](CCC(=O)O)[C@H]1CC[C@H]2[C@@H]3[C@@H](O)C[C@@H]4C[C@H](O)CC[C@]4(C)[C@H]3CC[C@]12C [Ursodeoxycholic acid] |  |  | 56.8 ± 3.8 | 1.02 ± 0.16 |  |  | 36.3 ± 13.6 | 1.12 ± 0.24 | 51.1 ± 11.4 | 0.86 ± 0.20 | inhibition at 200 µM ([1]; Homo sapiens, Table II, dose 200 μM, vs control): 81.3 ± 10.3%; Hair follicle length increase (mm) Treated ([1]; Table II, dose 200 μM): 0.20 ± 0.11 mm; % Reduction of human hair follicle growth ([1]; dose 150 μM): 65.3 ± 11.4%; Growth of follicle (mm) Treated ([1]; dose 150 μM): 0.61 ± 0.20 mm
